US20120207722A1, “Use Of Adipose Tissue Cells For Initiating The Formation Of A Functional Vascular Network” (CENTRE NATIONAL DE LA RECHERCHE SCIENTIFIQUE, priority 2003, published 2012)

Tested on: hind limb rendered ischemic
Test: Hind limb ischemia model, SVF-CULT cells with modified redox state (antimycin and/or PDTC)
Format: in vivo, mouse
Conditions: daily i.p. injection (50 μl at 40 nM) after the injection of the SVF-CULT cells
Experimental: The angiogenic potential of the SVF-CULT cells treated, in vitro, with antimycin (40 nM) and/or pyrrolidine dithiocarbamate (PDTC; 0.5 mM) two days before the injection, was analyzed in the model of the mouse with a hind limb rendered ischemic, as described in Example 1. Furthermore, after the injection of the SVF-CULT cells treated with antimycin alone, by adding antimycin to the culture medium, or not treated, the mice were or were not given a daily i.p. injection of antimycin (50 μl at 40 nM). The mice treated similarly with PDTC alone or in combination with antimycin receive no treatment after the injection of cells.
The angiogenic potential of the nontreated SVF-CULT cells, in mice not treated after the injection of the cells, was analyzed in parallel, by way of comparison. The control group was given an injection of ethanol, under the same conditions.
The neovascularization process was analyzed by microangiography and, optionally, by laser Doppler, 8 days after femoral occlusion. The statistical analysis was carried out by means of an ANOVA-type variance test for comparing each parameter (n=5 for each group). A Bonferroni t test subsequently made it possible to identify the groups causing these differences. A value of P<0.05 is considered to be significant.

antimycin
effect on revascularization when administered directly to the animal: no effect
